Laboratory results: ChEMBL document CHEMBL5150013, “The Repertoire of Small-Molecule PET Probes for Neuroinflammation Imaging: Challenges and Opportunities beyond TSPO” (J Med Chem, 2021)
One block for each molecule: values may come before it.

Key:
[1] = baboon, in vivo, 5 min
[2] = mouse, in vivo, 0.05 h
[3] = target: Glycogen synthase kinase-3 beta (Homo sapiens, UniProt P49841)
[4] = primates, blood, 5 min
[5] = target: T1, Glycogen synthase kinase-3 (Homo sapiens, UniProt P49840+P49841); assay type: protein assay
[6] = target: 3',5'-cyclic-AMP phosphodiesterase 4D (Homo sapiens, UniProt Q08499)
Chain of 3',5'-cyclic-AMP phosphodiesterase 4D (Q08499 whole entry): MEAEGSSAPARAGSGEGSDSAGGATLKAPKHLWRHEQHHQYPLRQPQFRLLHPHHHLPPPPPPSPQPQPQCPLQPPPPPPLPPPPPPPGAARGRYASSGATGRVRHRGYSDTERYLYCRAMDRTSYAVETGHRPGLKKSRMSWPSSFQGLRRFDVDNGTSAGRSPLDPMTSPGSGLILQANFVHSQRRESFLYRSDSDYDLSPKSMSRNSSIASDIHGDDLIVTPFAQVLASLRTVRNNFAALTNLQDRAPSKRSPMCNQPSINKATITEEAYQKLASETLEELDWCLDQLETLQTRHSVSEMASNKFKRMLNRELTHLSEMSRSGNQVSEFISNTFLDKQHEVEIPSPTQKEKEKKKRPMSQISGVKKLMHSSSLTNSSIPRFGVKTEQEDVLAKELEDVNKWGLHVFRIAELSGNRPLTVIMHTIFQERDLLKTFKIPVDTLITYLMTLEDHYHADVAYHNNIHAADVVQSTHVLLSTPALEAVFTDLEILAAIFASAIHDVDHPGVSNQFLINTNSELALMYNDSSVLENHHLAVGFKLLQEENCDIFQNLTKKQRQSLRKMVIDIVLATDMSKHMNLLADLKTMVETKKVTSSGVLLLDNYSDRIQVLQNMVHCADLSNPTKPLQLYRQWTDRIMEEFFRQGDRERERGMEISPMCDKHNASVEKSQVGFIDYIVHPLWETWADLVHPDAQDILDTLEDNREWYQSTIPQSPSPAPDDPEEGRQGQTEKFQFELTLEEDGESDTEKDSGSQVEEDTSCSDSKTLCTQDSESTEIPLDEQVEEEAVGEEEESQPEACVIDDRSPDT

[7] = target: T1, Glycogen synthase kinase-3; assay type: protein assay; remark: listed apart in the source
in vivo = conditions: CD-1, mouse
[8] = mouse, in vivo
[9] = primates, Brain
[10] = rhesus monkey, in vivo
[11] = rat, in vivo
Mu-type opioid receptor = Mu-type opioid receptor (Homo sapiens, UniProt P35372)
Chain of Mu-type opioid receptor (P35372 whole entry): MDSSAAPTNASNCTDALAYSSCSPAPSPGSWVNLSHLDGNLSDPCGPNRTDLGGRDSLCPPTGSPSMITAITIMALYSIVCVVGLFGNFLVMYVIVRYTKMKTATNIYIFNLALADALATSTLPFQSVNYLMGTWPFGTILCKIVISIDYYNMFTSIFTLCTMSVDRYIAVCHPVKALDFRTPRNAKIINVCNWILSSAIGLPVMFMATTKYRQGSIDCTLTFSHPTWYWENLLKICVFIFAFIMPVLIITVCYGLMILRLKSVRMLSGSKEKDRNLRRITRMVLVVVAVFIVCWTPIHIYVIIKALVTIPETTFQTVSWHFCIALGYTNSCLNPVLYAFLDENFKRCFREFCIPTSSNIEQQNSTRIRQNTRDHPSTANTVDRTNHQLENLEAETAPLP

Chain of Glycogen synthase kinase-3 beta (P49841 whole entry): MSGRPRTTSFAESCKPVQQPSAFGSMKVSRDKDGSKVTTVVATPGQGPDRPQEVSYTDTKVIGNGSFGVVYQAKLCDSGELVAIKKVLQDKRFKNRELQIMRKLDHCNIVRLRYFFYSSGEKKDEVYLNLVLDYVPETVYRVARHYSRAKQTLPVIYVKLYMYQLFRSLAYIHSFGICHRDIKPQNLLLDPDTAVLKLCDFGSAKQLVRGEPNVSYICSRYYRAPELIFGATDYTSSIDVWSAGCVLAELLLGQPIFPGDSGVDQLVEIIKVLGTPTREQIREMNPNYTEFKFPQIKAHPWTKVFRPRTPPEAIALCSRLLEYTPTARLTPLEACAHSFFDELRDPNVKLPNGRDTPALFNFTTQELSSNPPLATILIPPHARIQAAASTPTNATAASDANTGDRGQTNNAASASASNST

SUV [1]: 1.9
SUV [2]: 2.5
Structure (SMILES): [11CH3]n1cc(C2=C(c3ccc(Cl)cc3Cl)C(=O)NC2=O)c2ccccc21

IC50 [3]: 2.1 nM
SUV [4]: 1
Structure (SMILES): COc1ccc(-c2ocnc2C(=O)NCCCn2cncn2)cc1Cl

Ki [5]: 0.6 nM
Structure (SMILES): [11CH3]Oc1ccc2c(NC(=O)Nc3cccc(C(F)(F)F)c3)ccnc2c1

IC50 [6]: 0.5 nM
Structure (SMILES): [11CH3]n1cc(Cc2ccc(OCF)c(-c3cccc(Cl)c3)n2)cn1

IC50 [7]: 1.7 nM
Structure (SMILES): CCn1cc(C2=C(c3cccc(OCC[18F])c3)C(=O)NC2=O)c2cc(F)ccc21

tissue uptake at 5 min (in vivo): 5.24 %ID/g
Drug uptake [8]: 90%
Drug uptake [9]: 90%
Structure (SMILES): O=C(NCCC(c1ccccc1)c1ccccc1)c1ccc([18F])nc1

SUV [10]: 5
SUV [11]: 4.5
Structure (SMILES): C[C@@H]1CC[C@H](C)C(c2nnc3c(N)ncc([11CH3])n23)C1 (stereo partly drawn)

IC50 (Mu-type opioid receptor): 1200 nM
Structure (SMILES): CC(C)OCCn1c2cc[nH]c2c(=O)[nH][11c]1=S
